{
  "source": "patent US11034725B2",
  "about": "“Compositions and methods for treating cardiovascular disease” (Genentech, Inc., priority 2016, dated 2021)",
  "key": {"[1]": {"target": "T1, PCSK9Δhelix (Homo sapiens, UniProt Q8NBP7)", "T1 construct": "Human PCSK9 construct M1-Q692 with an engineered TEV site (residue deletion Y166, R167); made in house; host or cells: CHO", "T1 sequence (Q8NBP7 with tags, fused parts or gaps limits assumed)": "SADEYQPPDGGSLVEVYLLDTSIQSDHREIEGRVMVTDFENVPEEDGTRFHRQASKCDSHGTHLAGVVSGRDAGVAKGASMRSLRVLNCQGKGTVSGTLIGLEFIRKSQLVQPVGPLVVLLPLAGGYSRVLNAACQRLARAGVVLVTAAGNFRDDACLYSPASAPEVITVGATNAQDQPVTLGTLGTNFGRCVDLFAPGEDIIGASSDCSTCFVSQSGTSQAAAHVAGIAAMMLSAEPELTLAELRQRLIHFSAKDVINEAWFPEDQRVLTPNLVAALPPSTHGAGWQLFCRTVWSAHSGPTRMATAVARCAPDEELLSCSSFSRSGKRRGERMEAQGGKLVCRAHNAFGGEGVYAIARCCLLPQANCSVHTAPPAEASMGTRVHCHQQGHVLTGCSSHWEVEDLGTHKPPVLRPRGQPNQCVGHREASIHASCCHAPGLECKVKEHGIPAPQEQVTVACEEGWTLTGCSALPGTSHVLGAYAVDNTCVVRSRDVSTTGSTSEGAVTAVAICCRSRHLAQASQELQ", "T1 sequence (Q8NBP7 31-152 partner limits assumed)": "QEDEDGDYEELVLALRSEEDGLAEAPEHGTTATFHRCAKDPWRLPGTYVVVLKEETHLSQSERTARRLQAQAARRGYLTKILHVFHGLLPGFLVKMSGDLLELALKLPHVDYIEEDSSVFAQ", "experiment": "PCSK9Δhelix/Ab20 TR-FRET binding assay"}, "[2]": {"target": "PCSK9 (Homo sapiens, UniProt Q8NBP7)", "sequence (Q8NBP7 153-692)": "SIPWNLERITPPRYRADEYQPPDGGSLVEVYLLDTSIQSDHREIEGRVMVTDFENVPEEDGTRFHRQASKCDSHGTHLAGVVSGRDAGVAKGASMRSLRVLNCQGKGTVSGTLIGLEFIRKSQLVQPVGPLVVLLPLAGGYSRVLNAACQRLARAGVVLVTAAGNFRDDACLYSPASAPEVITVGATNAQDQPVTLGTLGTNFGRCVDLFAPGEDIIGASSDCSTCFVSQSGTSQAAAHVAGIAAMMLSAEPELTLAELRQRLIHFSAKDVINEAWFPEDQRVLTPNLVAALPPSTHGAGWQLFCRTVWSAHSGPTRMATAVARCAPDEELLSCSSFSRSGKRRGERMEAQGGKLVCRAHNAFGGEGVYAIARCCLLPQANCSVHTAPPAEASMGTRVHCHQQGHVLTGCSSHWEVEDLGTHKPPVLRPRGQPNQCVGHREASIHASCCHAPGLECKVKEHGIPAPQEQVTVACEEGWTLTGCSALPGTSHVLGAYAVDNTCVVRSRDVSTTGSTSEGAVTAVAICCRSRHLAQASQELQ", "sequence (Q8NBP7 31-152 partner limits assumed)": "as the sequence (Q8NBP7 31-152 partner limits assumed) above", "experiment": "PCSK9/EGF(A) TR-FRET binding assay"}, "[3]": {"system": "His-EGF(A)-Fc", "experiment": "His-EGF(A)-Fc TR-FRET counterscreen"}, "[4]": {"details": "TR-FRET, Example 7, read-out: PCSK9Δhelix/Ab20 IC50"}, "[5]": {"details": "TR-FRET, Table 8D, disulfide-cyclized extension peptides, read-out: PCSK9Δhelix/Ab20 IC50"}, "[6]": {"details": "TR-FRET, Table 8D, disulfide-cyclized extension peptides, read-out: PCSK9/EGF(A) IC50"}, "[7]": {"details": "TR-FRET counterscreen, Table 8D, * = some inhibition at highest concentrations, not sufficient to fit an IC50"}},
  "note": "Where “and” joins values, the source holds several entries; their conditions need not be identical. Identical values can stand only once. Like-named read-outs stand apart in the source and are kept apart here. Bridge positions count the residues as written; N and C are the ends. Square brackets hold non-standard residues; d marks the D form. Peptide text beside a SMILES is read from it. Cit = NC(=O)NCCC[C@H](N)C(=O)O",
  "data": [
    {"compound": "CC[C@H](C)[C@@H]1NC(=O)[C@H](CCCNC(=N)N)NC(=O)[C@H](CCCCN)NC(=O)[C@H](CC(C)C)NC(=O)[C@H](CC(N)=O)NC(=O)[C@H](Cc2c[nH]c3ccccc23)NC(=O)[C@@H](NC(=O)CNC(=O)CNC(=O)[C@H](CO)NC(=O)CNC(=O)[C@@H](NC(=O)[C@H](Cc2c[nH]c3ccccc23)NC(=O)[C@H](CC(=O)O)NC(=O)[C@H](CC(C)C)NC(=O)[C@H](Cc2ccc(O)cc2)NC(=O)[C@H](CCC(=O)O)NC(=O)[C@H](CCC(=O)O)NC(=O)[C@H](Cc2c[nH]c3ccccc23)NC(=O)[C@H](CO)NC(=O)[C@@H](NC(=O)[C@H](Cc2ccccc2)NC(=O)[C@@H](NC(=O)[C@@H](NC(C)=O)[C@@H](C)O)C(C)C)[C@@H](C)O)C(C)C)CSSC[C@@H](C(N)=O)NC(=O)CNC(=O)[C@H](CCC(N)=O)NC(=O)[C@H](CO)NC(=O)CNC1=O", "note": "[Compound 14] (Ac-TVFTSWEEYLDWVGSGGCWNLKRIGSQGC-NH2; disulfide 18-29)", "values": [
      {"measurement": "inhibition in the PCSK9Δhelix/Ab20 binding assay", "setting": "[1]", "value": "potent inhibitors"},
      {"measurement": "IC50", "setting": "[1]; [4]", "value": 0.001, "unit": "µM"},
      {"measurement": "inhibition in the PCSK9/EGF(A) binding assay", "setting": "[2]", "value": "potent inhibitors"},
      {"measurement": "IC50", "setting": "[2]; TR-FRET, Example 7, read-out: PCSK9/EGF(A) IC50", "value": 0.009, "unit": "µM"},
      {"measurement": "IC50", "setting": "[3]; counterscreen, Example 7", "value": "> 50", "unit": "µM"}
    ]},
    {"compound": "CC[C@H](C)[C@@H]1NC(=O)[C@H](CCCNC(=N)N)NC(=O)[C@H](CCCCN)NC(=O)[C@H](CC(C)C)NC(=O)[C@H](CC(N)=O)NC(=O)[C@H](Cc2c[nH]c3ccccc23)NC(=O)[C@@H](NC(=O)CCCCCCCNC(=O)[C@@H](NC(=O)[C@H](Cc2c[nH]c3ccccc23)NC(=O)[C@H](CC(=O)O)NC(=O)[C@H](CC(C)C)NC(=O)[C@H](Cc2ccc(O)cc2)NC(=O)[C@H](CCC(=O)O)NC(=O)[C@H](CCC(=O)O)NC(=O)[C@H](Cc2c[nH]c3ccccc23)NC(=O)[C@H](CO)NC(=O)[C@@H](NC(=O)[C@H](Cc2ccccc2)NC(=O)[C@@H](NC(=O)[C@@H](NC(C)=O)[C@@H](C)O)C(C)C)[C@@H](C)O)C(C)C)CSSC[C@@H](C(N)=O)NC(=O)CNC(=O)[C@H](CCC(N)=O)NC(=O)[C@H](CO)NC(=O)CNC1=O", "note": "[Compound 15]", "values": [
      {"measurement": "inhibition in the PCSK9Δhelix/Ab20 binding assay", "setting": "[1]", "value": "maintained potency"},
      {"measurement": "IC50", "setting": "[1]; [4]", "value": 0.002, "unit": "µM"},
      {"measurement": "inhibition in the PCSK9/EGF(A) binding assay", "setting": "[2]", "value": "maintained potency"},
      {"measurement": "IC50", "setting": "[3]; counterscreen, Example 7", "value": "> 50", "unit": "µM"}
    ]},
    {"compound": "CC[C@H](C)[C@@H]1NC(=O)[C@H](CCCNC(=N)N)NC(=O)[C@H](CCCCN)NC(=O)[C@H](CC(C)C)NC(=O)[C@H](CC(N)=O)NC(=O)[C@H](Cc2c[nH]c3ccccc23)NC(=O)[C@@H](NC(C)=O)CSSC[C@@H](C(N)=O)NC(=O)CNC(=O)[C@H](CCC(N)=O)NC(=O)[C@H](CO)NC(=O)CNC1=O", "note": "[Compound 21] (Ac-CWNLKRIGSQGC-NH2; disulfide 1-12)", "values": [
      {"measurement": "IC50", "setting": "[1]; [5]", "value": "> 50", "unit": "µM"},
      {"measurement": "IC50", "setting": "[2]; [6]", "value": "> 50", "unit": "µM"},
      {"measurement": "IC50", "setting": "[3]; [7]", "value": "> 50", "unit": "µM"}
    ]},
    {"compound": "CC[C@H](C)[C@@H]1NC(=O)[C@H](CCCNC(=N)N)NC(=O)[C@H](CCCCN)NC(=O)[C@H](CC(C)C)NC(=O)[C@H](CC(N)=O)NC(=O)[C@H](Cc2c[nH]c3ccccc23)NC(=O)[C@@H](NC(=O)CNC(=O)[C@H](CO)NC(=O)CNC(C)=O)CSSC[C@@H](C(N)=O)NC(=O)CNC(=O)[C@H](CCC(N)=O)NC(=O)[C@H](CO)NC(=O)CNC1=O", "note": "[Compound 22] (Ac-GSGCWNLKRIGSQGC-NH2; disulfide 4-15 (inferred))", "values": [
      {"measurement": "IC50", "setting": "[1]; PCSK9Δhelix/Ab20 IC50, TR-FRET, Table 8D, disulfide-cyclized extension peptides", "value": "14 µM and > 50 µM"},
      {"measurement": "IC50", "setting": "[2]; PCSK9/EGF(A) IC50, TR-FRET, Table 8D, disulfide-cyclized extension peptides", "value": "> 50", "unit": "µM"},
      {"measurement": "IC50", "setting": "[3]; [7]", "value": "> 50", "unit": "µM"}
    ]},
    {"compound": "CC[C@H](C)[C@@H]1NC(=O)[C@H](CCCNC(=N)N)NC(=O)[C@H](CCCCN)NC(=O)[C@H](CC(C)C)NC(=O)[C@H](CC(N)=O)NC(=O)[C@H](Cc2c[nH]c3ccccc23)NC(=O)[C@@H](NC(=O)CCCCCCNC(=O)[C@@H](NC(=O)[C@H](Cc2c[nH]c3ccccc23)NC(=O)[C@H](CC(=O)O)NC(=O)[C@H](CC(C)C)NC(=O)[C@H](Cc2ccc(O)cc2)NC(=O)[C@H](CCC(=O)O)NC(=O)[C@H](CCC(=O)O)NC(=O)[C@H](Cc2c[nH]c3ccccc23)NC(=O)[C@H](CO)NC(=O)[C@@H](NC(=O)[C@H](Cc2ccccc2)NC(=O)[C@@H](NC(=O)[C@@H](NC(C)=O)[C@@H](C)O)C(C)C)[C@@H](C)O)C(C)C)CSSC[C@@H](C(N)=O)NC(=O)CNC(=O)[C@H](CCC(N)=O)NC(=O)[C@H](CO)NC(=O)CNC1=O", "note": "[Compound 24]", "values": [
      {"measurement": "inhibition in the PCSK9Δhelix/Ab20 binding assay", "setting": "[1]", "value": "maintained potency"},
      {"measurement": "IC50", "setting": "[1]; [4]", "value": 0.001, "unit": "µM"},
      {"measurement": "inhibition in the PCSK9/EGF(A) binding assay", "setting": "[2]", "value": "maintained potency"},
      {"measurement": "IC50", "setting": "[3]; counterscreen, Example 7", "value": "> 50", "unit": "µM"}
    ]},
    {"compound": "CC[C@H](C)[C@@H]1NC(=O)[C@H](CCCNC(=N)N)NC(=O)[C@H](CCC(N)=O)NC(=O)[C@H](CC(C)C)NC(=O)[C@H](CC(N)=O)NC(=O)[C@H](Cc2c[nH]c3ccccc23)NC(=O)[C@@H]2CCCN2C(=O)[C@H](CC(C)C)NC(=O)[C@H](CCCNC(=N)N)NC(=O)[C@@H](NC(=O)CNC(=O)[C@H](CO)NC(C)=O)CSSC[C@@H](C(N)=O)NC(=O)[C@@H]2CCCN2C(=O)[C@H](CC(C)C)NC(=O)CNC1=O", "note": "[Compound 30] (Ac-SGCRLPWNLQRIGLPC-NH2; disulfide 3-16)", "values": [
      {"measurement": "IC50", "setting": "[1]; [5]", "value": 0.95, "unit": "µM"},
      {"measurement": "IC50", "setting": "[2]; [6]", "value": "> 50", "unit": "µM"},
      {"measurement": "IC50", "setting": "[3]; [7]", "value": "> 50", "unit": "µM"}
    ]},
    {"compound": "CC[C@H](C)[C@@H]1NC(=O)[C@H](CCCNC(N)=O)NC(=O)[C@H](CCC(N)=O)NC(=O)[C@H](CC(C)C)NC(=O)[C@H](CC(N)=O)NC(=O)[C@H](Cc2c[nH]c3ccccc23)NC(=O)[C@@H]2CCCN2C(=O)[C@H]([C@@H](C)CC)NC(=O)[C@H](Cc2ccccc2)NC(=O)[C@@H](NC(=O)CNC(=O)[C@H](CO)NC(C)=O)CSSC[C@@H](C(N)=O)NC(=O)[C@@H]2CCCN2C(=O)[C@H](CC(C)C)NC(=O)CNC1=O", "note": "[Compound 36] (Ac-SGCFIPWNLQ[Cit]IGLPC-NH2; disulfide 3-16)", "values": [
      {"measurement": "IC50", "setting": "[1]; [5]", "value": "> 50", "unit": "µM"},
      {"measurement": "IC50", "setting": "[2]; [6]", "value": "> 50", "unit": "µM"},
      {"measurement": "IC50", "setting": "[3]; [7]", "value": "> 50", "unit": "µM"}
    ]},
    {"compound": "CC[C@H](C)[C@@H]1NC(=O)[C@H](CCCNC(=N)N)NC(=O)[C@H](CCCCN)NC(=O)[C@H](CC(C)C)NC(=O)[C@H](CC(N)=O)NC(=O)[C@H](Cc2c[nH]c3ccccc23)NC(=O)[C@@H](NC(C)=O)CSSC[C@@H](C(=O)N[C@@H](Cc2c[nH]c3ccccc23)C(N)=O)NC(=O)CNC(=O)[C@H](CCC(N)=O)NC(=O)[C@H](CO)NC(=O)CNC1=O", "note": "[Compound 39] (Ac-CWNLKRIGSQGCW-NH2; disulfide 1-12)", "values": [
      {"measurement": "IC50", "setting": "[1]; [5]", "value": 37.5, "unit": "µM"},
      {"measurement": "IC50", "setting": "[2]; [6]", "value": "> 50", "unit": "µM"},
      {"measurement": "IC50", "setting": "[3]; [7]", "value": "> 50", "unit": "µM"}
    ]},
    {"compound": "CC[C@H](C)[C@@H]1NC(=O)[C@H](CCCNC(=N)N)NC(=O)[C@H](CCCCN)NC(=O)[C@H](CC(C)C)NC(=O)[C@H](CC(N)=O)NC(=O)[C@H](Cc2c[nH]c3ccccc23)NC(=O)[C@H](CC(C)C)NC(=O)[C@@H](NC(=O)[C@H](CC(=O)O)NC(C)=O)CSSC[C@@H](C(=O)N[C@@H](CCC(=O)O)C(=O)N[C@@H](Cc2ccc(O)cc2)C(N)=O)NC(=O)[C@H](CCC(N)=O)NC(=O)[C@H](CO)NC(=O)CNC1=O", "note": "[Compound 64] (Ac-DCLWNLKRIGSQCEY-NH2; disulfide 2-13)", "values": [
      {"measurement": "IC50", "setting": "[1]; [5]", "value": "> 50", "unit": "µM"},
      {"measurement": "IC50", "setting": "[2]; [6]", "value": "> 50", "unit": "µM"},
      {"measurement": "IC50", "setting": "[3]; [7]", "value": "> 50", "unit": "µM"}
    ]},
    {"compound": "CC[C@H](C)[C@@H]1NC(=O)[C@H](CCCNC(=N)N)NC(=O)[C@H](CCCCN)NC(=O)[C@H](CC(C)C)NC(=O)[C@H](CC(N)=O)NC(=O)[C@H](Cc2c[nH]c3ccccc23)NC(=O)[C@H](CC(C)C)NC(=O)[C@@H](NC(=O)[C@H](Cc2c[nH]c3ccccc23)NC(C)=O)CSSC[C@@H](C(=O)N[C@@H](CCC(=O)O)C(=O)N[C@@H](Cc2ccc(O)cc2)C(N)=O)NC(=O)[C@H](CCC(N)=O)NC(=O)[C@H](CO)NC(=O)CNC1=O", "note": "[Compound 65] (Ac-WCLWNLKRIGSQCEY-NH2; disulfide 2-13)", "values": [
      {"measurement": "IC50", "setting": "[1]; [5]", "value": 7.1, "unit": "µM"},
      {"measurement": "IC50", "setting": "[2]; [6]", "value": "> 50", "unit": "µM"},
      {"measurement": "IC50", "setting": "[3]; [7]", "value": "> 50", "unit": "µM"}
    ]}
  ]
}
